Laboratory results published in ChEMBL document CHEMBL1201862, “PubChem BioAssay data set” (2004).
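Results reflect a 48-hour exposure of cells in 96-well plates to compound at five concentrations. GI50: concentration for 50% inhibition of growth.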 Activity calls are given as the source filed them. No stated cut-off is given here; in the data, active = GI50 up to about 1.1 µM and inactive = higher.

Experiments:
Assay in all cases: inhibition of tumour cell growth, NCI panel, 48 h
SK-MEL-28 = tested on: SK-MEL-28
MCF7 = tested on: MCF7
SW-620 = tested on: SW-620
LOX IMVI = tested on: LOX IMVI
OVCAR-8 = tested on: OVCAR-8
MDA-MB-435 = tested on: MDA-MB-435
SNB-19 = tested on: SNB-19
HL-60 = tested on: HL-60
OVCAR-3 = tested on: OVCAR-3
MOLT-4 = tested on: MOLT-4
HT-29 = tested on: HT-29
TK-10 = tested on: TK-10
SNB-75 = tested on: SNB-75
Malme-3M = tested on: Malme-3M
HCT-116 = tested on: HCT-116
SF-295 = tested on: SF-295
RXF 393 = tested on: RXF 393
COLO 205 = tested on: COLO 205
PC-3 = tested on: PC-3
MDA-MB-231 = tested on: MDA-MB-231

| Structure (SMILES) | GI50 (SK-MEL-28) | GI50 (MCF7) | GI50 (SW-620) | GI50 (LOX IMVI) | GI50 (OVCAR-8) | GI50 (MDA-MB-435) | GI50 (SNB-19) | GI50 (HL-60) | GI50 (OVCAR-3) | GI50 (MOLT-4) | GI50 (HT-29) | GI50 (TK-10) | GI50 (SNB-75) | GI50 (Malme-3M) | GI50 (HCT-116) | GI50 (SF-295) | GI50 (RXF 393) | GI50 (COLO 205) | GI50 (PC-3) | GI50 (MDA-MB-231) |
| --- | --- | --- | --- | --- | --- | --- | --- | --- | --- | --- | --- | --- | --- | --- | --- | --- | --- | --- | --- | --- |
| COc1cc(C(=O)N(Cc2cccnc2)C(=S)N(Cc2cccnc2)C(=O)c2cc(OC)c(OC)c(OC)c2)cc(OC)c1OC | > 100 µM (inactive) | 19.9 µM (inactive) | 32.9 µM (inactive) | 30.7 µM (inactive) | 28.7 µM (inactive) | 31 µM (inactive) | > 100 µM (inactive) | 37.2 µM (inactive) | 34.4 µM (inactive) | 54.2 µM (inactive) | 35.4 µM (inactive) | 89.1 µM (inactive) | 21.4 µM (inactive) | 89.7 µM (inactive) | 31 µM (inactive) | > 100 µM (inactive) | 38.4 µM (inactive) | 35 µM (inactive) | – | – |
| N#Cc1c(Cl)cccc1Oc1ccc(S(=O)(=O)/N=C(\NN)Nc2ccc(Cl)cc2)cc1 | 31.8 µM (inactive) | 35.7 µM (inactive) | 41.9 µM (inactive) | 17.5 µM (inactive) | 31.2 µM (inactive) | – | 41.1 µM (inactive) | 21.5 µM (inactive) | 19.7 µM (inactive) | 14.6 µM (inactive) | 30.3 µM (inactive) | 26.9 µM (inactive) | 21.6 µM (inactive) | – | 17.7 µM (inactive) | 24.2 µM (inactive) | 19.1 µM (inactive) | 15.6 µM (inactive) | 23.6 µM (inactive) | 27.4 µM (inactive) |
| CCOC(=O)c1c(N)sc2c1C(C)(C(=O)OCC)CC2 (stereo unspecified) | > 100 µM (inactive) | > 100 µM (inactive) | > 100 µM (inactive) | – | > 100 µM (inactive) | – | > 100 µM (inactive) | 96.8 µM (inactive) | – | 74.5 µM (inactive) | > 100 µM (inactive) | > 100 µM (inactive) | 88.3 µM (inactive) | > 100 µM (inactive) | 97.5 µM (inactive) | – | > 100 µM (inactive) | > 100 µM (inactive) | > 100 µM (inactive) | > 100 µM (inactive) |
| CN(C)CCNc1ccc(NCC[N+](C)(C)Cc2ccc([N+](=O)[O-])cc2)c2c1C(=O)c1c(O)ccc(O)c1C2=O | > 100 µM (inactive) | – | 27.9 µM (inactive) | 25.5 µM (inactive) | > 100 µM (inactive) | 35.2 µM (inactive) | > 100 µM (inactive) | 54.2 µM (inactive) | > 100 µM (inactive) | 0.509 µM (active) | 25.8 µM (inactive) | – | 19.6 µM (inactive) | – | 15.8 µM (inactive) | – | – | 27.6 µM (inactive) | 56 µM (inactive) | 43.2 µM (inactive) |
| Cc1ccc(N2Cc3c(ccc4ccccc34)OP2(=S)N2CCCC2)cc1 (stereo unspecified) | > 100 µM (inactive) | > 100 µM (inactive) | > 100 µM (inactive) | > 100 µM (inactive) | > 100 µM (inactive) | – | > 100 µM (inactive) | > 100 µM (inactive) | > 40.1 µM (inactive) | > 44.5 µM (inactive) | > 100 µM (inactive) | – | > 100 µM (inactive) | > 100 µM (inactive) | > 100 µM (inactive) | > 67.8 µM (inactive) | > 100 µM (inactive) | > 100 µM (inactive) | – | – |
| C[n+]1cccc2ccc(OC(=O)c3ccccc3)cc21 | – | > 100 µM (inactive) | > 100 µM (inactive) | > 100 µM (inactive) | > 100 µM (inactive) | > 100 µM (inactive) | > 100 µM (inactive) | > 10 µM (inactive) | > 100 µM (inactive) | > 100 µM (inactive) | > 100 µM (inactive) | > 100 µM (inactive) | > 100 µM (inactive) | > 100 µM (inactive) | > 100 µM (inactive) | > 100 µM (inactive) | > 100 µM (inactive) | > 100 µM (inactive) | – | – |
| CC1=CC[C@@]2(CO)[C@@H]([C@@H]1C)[C@H]1CC[C@@H]3[C@@]4(C)CC[C@H](O)C(C)(C)[C@@H]4CC[C@@]3(C)[C@]1(C)C[C@@H]2O | 43.9 µM (inactive) | 8.43 µM (inactive) | 35.6 µM (inactive) | 15.8 µM (inactive) | 14.3 µM (inactive) | 40.2 µM (inactive) | 35.1 µM (inactive) | 11.7 µM (inactive) | 31.5 µM (inactive) | 21.3 µM (inactive) | 29.8 µM (inactive) | 18.4 µM (inactive) | – | 20.3 µM (inactive) | 21.5 µM (inactive) | 17 µM (inactive) | 7.08 µM (inactive) | 17.3 µM (inactive) | 13.3 µM (inactive) | – |
| COc1ccc(/C=N/NC(=S)Nc2cc(C)ccc2OC)cc1 | 34.8 µM (inactive) | 22.9 µM (inactive) | 34.7 µM (inactive) | 43.8 µM (inactive) | 37.6 µM (inactive) | 25.6 µM (inactive) | 46.1 µM (inactive) | 20.3 µM (inactive) | 40.2 µM (inactive) | 9.98 µM (inactive) | 10.1 µM (inactive) | – | > 100 µM (inactive) | 25.8 µM (inactive) | 29.2 µM (inactive) | 37.4 µM (inactive) | 33.7 µM (inactive) | 17 µM (inactive) | 34.4 µM (inactive) | – |
| COc1ccc(C)cc1Nc1nnc(-c2ccccc2N)s1 | 53.3 µM (inactive) | 37.8 µM (inactive) | 36.1 µM (inactive) | 47.1 µM (inactive) | 35.7 µM (inactive) | 28.6 µM (inactive) | > 100 µM (inactive) | 19.5 µM (inactive) | 37.5 µM (inactive) | 2.41 µM (inactive) | 41.5 µM (inactive) | – | 55 µM (inactive) | 40.6 µM (inactive) | 37.3 µM (inactive) | 34 µM (inactive) | 55.1 µM (inactive) | 36.8 µM (inactive) | 35 µM (inactive) | – |
| C=C1C2=C(CCCC2)C(=O)OC12CCCCC2 | 79.4 µM (inactive) | – | > 100 µM (inactive) | 66.4 µM (inactive) | > 100 µM (inactive) | – | > 100 µM (inactive) | 27.1 µM (inactive) | 43.5 µM (inactive) | 38.5 µM (inactive) | 59.4 µM (inactive) | > 100 µM (inactive) | 23.8 µM (inactive) | 51.3 µM (inactive) | 47.1 µM (inactive) | 57.7 µM (inactive) | 56.5 µM (inactive) | 51.2 µM (inactive) | – | – |
| O=C(OCCO)C1CC2CC1C1(C2)OCCO1 (stereo unspecified) | > 100 µM (inactive) | – | > 100 µM (inactive) | > 100 µM (inactive) | > 100 µM (inactive) | – | > 100 µM (inactive) | > 100 µM (inactive) | > 100 µM (inactive) | > 100 µM (inactive) | > 100 µM (inactive) | > 100 µM (inactive) | > 100 µM (inactive) | > 100 µM (inactive) | > 100 µM (inactive) | > 100 µM (inactive) | > 100 µM (inactive) | > 100 µM (inactive) | – | – |
| Cc1c2ccccc2c(C2C3C(=O)N(c4ccc(Br)cc4)C(=O)C3ON2C(C(N)=O)c2ccccc2)c2ccccc12 (stereo unspecified) | 17.9 µM (inactive) | 4.43 µM (inactive) | 3.98 µM (inactive) | 4.97 µM (inactive) | 6.78 µM (inactive) | 3.13 µM (inactive) | 4.8 µM (inactive) | 3.81 µM (inactive) | 3.01 µM (inactive) | 4.05 µM (inactive) | 2.58 µM (inactive) | – | 5.02 µM (inactive) | 3.78 µM (inactive) | 4.37 µM (inactive) | 6.59 µM (inactive) | 11.7 µM (inactive) | 1.77 µM (inactive) | 4.86 µM (inactive) | – |
| COc1cccc(-c2c(C#N)c(N)nc3c2CCS(=O)(=O)c2ccc(C)cc2-3)c1 | > 100 µM (inactive) | – | > 100 µM (inactive) | > 100 µM (inactive) | 43.8 µM (inactive) | > 100 µM (inactive) | 56.2 µM (inactive) | > 100 µM (inactive) | > 100 µM (inactive) | – | > 100 µM (inactive) | > 100 µM (inactive) | 33 µM (inactive) | 68.1 µM (inactive) | > 100 µM (inactive) | – | – | > 100 µM (inactive) | 89.1 µM (inactive) | > 100 µM (inactive) |
| O=C1/C(=C/C=C/c2ccccc2)N=C(c2ccccc2)N1c1ccc(S(=O)(=O)Nc2nccs2)cc1 | – | 18.7 µM (inactive) | 35.1 µM (inactive) | 21.8 µM (inactive) | 29.3 µM (inactive) | 28.2 µM (inactive) | 37.2 µM (inactive) | 46.1 µM (inactive) | 21.1 µM (inactive) | 50.1 µM (inactive) | 23 µM (inactive) | 30.8 µM (inactive) | 45.1 µM (inactive) | 32.7 µM (inactive) | 29.6 µM (inactive) | 33.5 µM (inactive) | 13.2 µM (inactive) | 18.8 µM (inactive) | 36.4 µM (inactive) | – |
| NN/C(=N\S(=O)(=O)c1cc(Cl)c(Oc2ccc([N+](=O)[O-])cc2Cl)c(Cl)c1)Nc1ccc(Cl)cc1 | 21.5 µM (inactive) | 22.6 µM (inactive) | 28.7 µM (inactive) | 21 µM (inactive) | 24.2 µM (inactive) | – | 23.8 µM (inactive) | – | 15.9 µM (inactive) | 19.1 µM (inactive) | 19.1 µM (inactive) | 19.3 µM (inactive) | 23.7 µM (inactive) | 21.8 µM (inactive) | 15.7 µM (inactive) | 20.4 µM (inactive) | 13.2 µM (inactive) | 15.6 µM (inactive) | 26.5 µM (inactive) | 18.4 µM (inactive) |
